Where two headings read alike, the source gives them in different places.
Biological target: T1, Zcchc11 enzyme (Homo sapiens, UniProt Q5TAX3)
T1 construct: made in house; host or cells: HEK293 cells (Zcchc11); E. coli Rosetta II (LIN28A)
T1 sequence (Q5TAX3 212-1420): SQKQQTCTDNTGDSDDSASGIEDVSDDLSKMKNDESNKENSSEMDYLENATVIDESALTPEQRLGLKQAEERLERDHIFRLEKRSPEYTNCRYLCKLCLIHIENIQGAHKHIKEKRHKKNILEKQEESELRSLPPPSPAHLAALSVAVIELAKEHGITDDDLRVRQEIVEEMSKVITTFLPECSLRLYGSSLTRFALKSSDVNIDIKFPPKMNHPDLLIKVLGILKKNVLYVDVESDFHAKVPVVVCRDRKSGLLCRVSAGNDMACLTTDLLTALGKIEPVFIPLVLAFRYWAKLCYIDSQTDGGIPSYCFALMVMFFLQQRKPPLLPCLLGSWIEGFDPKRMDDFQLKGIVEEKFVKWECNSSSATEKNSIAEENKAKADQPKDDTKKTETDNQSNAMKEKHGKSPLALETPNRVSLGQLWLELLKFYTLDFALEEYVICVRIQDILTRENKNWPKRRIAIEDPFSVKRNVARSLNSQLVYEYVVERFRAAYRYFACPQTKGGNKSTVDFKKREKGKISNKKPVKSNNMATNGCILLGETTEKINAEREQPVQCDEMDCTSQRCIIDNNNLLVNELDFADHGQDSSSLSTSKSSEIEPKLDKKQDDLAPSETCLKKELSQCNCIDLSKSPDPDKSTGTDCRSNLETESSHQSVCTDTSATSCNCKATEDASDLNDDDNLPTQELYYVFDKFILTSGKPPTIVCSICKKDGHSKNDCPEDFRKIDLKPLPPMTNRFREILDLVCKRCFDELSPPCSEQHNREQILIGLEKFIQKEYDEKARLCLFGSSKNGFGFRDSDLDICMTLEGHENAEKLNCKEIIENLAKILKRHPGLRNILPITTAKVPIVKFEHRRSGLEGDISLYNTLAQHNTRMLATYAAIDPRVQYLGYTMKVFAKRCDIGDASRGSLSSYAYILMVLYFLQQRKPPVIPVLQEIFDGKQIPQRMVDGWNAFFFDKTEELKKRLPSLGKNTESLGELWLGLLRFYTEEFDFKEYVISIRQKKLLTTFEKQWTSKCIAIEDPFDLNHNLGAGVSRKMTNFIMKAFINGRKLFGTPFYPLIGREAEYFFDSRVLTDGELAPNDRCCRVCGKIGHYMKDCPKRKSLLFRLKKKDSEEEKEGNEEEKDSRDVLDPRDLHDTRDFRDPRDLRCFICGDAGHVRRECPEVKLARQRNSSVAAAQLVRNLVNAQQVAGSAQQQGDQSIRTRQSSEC
Assay: TUTase assay (Zcchc11 assay, Lin28a-dependent polyuridylation of pre-let-7)
Type: biochemical
Settings: read-out: Potency Lin28a-dep Z11 IC50
Method in brief: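 Polyuridylation measured as fluorescein loss when a rhodamine-labelled A20 probe anneals to U-tails added to fluorescein pre-let-7 (2 nM). Reaction: truncated Zcchc11 0.2 nM, E. coli-made LIN28A 10 nM, UTP 5 uM, HEPES pH 7.3, room temperature. Initial rates fitted to four-parameter IC50.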

[1] = Lin28a-dependent Zcchc11 (Z11) TUTase assay
[2] = Lin28a-dependent Zcchc11 (Z11) TUTase activity

IC50 [1] [nM]	IC50 [2] [nM]	further results	SMILES
1000 to 10000	–	–	O=C(O)c1cn(Cc2ccncc2)c2cc(N3CCC[C@@H]3COc3ncccc3Cl)c(Cl)cc2c1=O [Example 577, (R)-6-chloro-7-(2-(((3-chloropyridin-2-yl)oxy)methyl)pyrrolidin-1-yl)-4-oxo-1-(pyridin-4-ylmethyl)-1,4-dihydroquinoline-3-carboxylic acid]
1000 to 10000	–	–	Cc1cccnc1OC[C@H]1CCCN1c1cc2c(cc1Cl)c(=O)c(C(=O)O)cn2C1CNC1 [Example 366, 1-(Azetidin-3-yl)-6-chloro-7-[(2R)-2-{[(3-methyl-pyridin-2-yl)oxy]methyl}pyrrolidin-1-yl]-4-oxo-1,4-dihydroquinoline-3-carboxylic acid]
≤ 1000	–	–	COc1ccc(C2C[C@H](COc3ncccc3Cl)N(c3cc4c(cc3Cl)c(=O)c(C(=O)O)cn4-c3ccc(N4CC(N(C)C)C4)nc3)C2)cn1 (stereo partly drawn) [Example 603, 6-chloro-7-((2R)-2-(((3-chloropyridin-2-yl)oxy)methyl)-4-(6-methoxypyridin-3-yl)pyrrolidin-1-yl)-1-(6-(3-(dimethylamino)azetidin-1-yl)pyridin-3-yl)-4-oxo-1,4-dihydroquinoline-3-carboxylic acid]
–	≤ 1000	–	COc1ccc(Cl)c(OCC2C3CC(C3)N2c2cc3c(cc2Cl)c(=O)c(C(=O)O)cn3-c2ccc(N3CC(N(C)C)C3)nc2)n1 (stereo not drawn) [Compound 202, 6-chloro-7-(3-(((3-chloro-6-methoxy-pyridin-2-yl)oxy)methyl)-2-azabicyclo [2.1.1]hexan-2-yl)-1-(6-(3-(dimethyl-amino)azetidin-1-yl)pyridin-3-yl)-4-oxo-1,4-dihydro-quinoline-3-carboxylic acid]
≤ 1000	–	–	N#Cc1cc2c(=O)c(C(=O)O)cn(C3CCn4ccnc4C3)c2cc1N1CCC[C@@H]1COc1ncccc1Cl (stereo partly drawn) [Example 540, 7-((R)-2-(((3-chloropyridin-2-yl)oxy)methyl)pyrrolidin-1-yl)-6-cyano-4-oxo-1-(5,6,7,8-tetrahydroimidazo [1,2-a]pyridin-7-yl)-1,4-dihydroquinoline-3-carboxylic acid]
≤ 1000	–	–	CC(=O)Nc1ccc(-n2cc(C(=O)O)c(=O)c3cc(Cl)c(N4CCC[C@@H]4COc4ncccc4Cl)cc32)cn1 [Example 426, (R)-1-(6-acetamidopyridin-3-yl)-6-chloro-7-(2-(((3-chloro-pyridin-2-yl)oxy)methyl)pyrrolidin-1-yl)-4-oxo-1,4-dihydroquinoline-3-carboxylic acid]
≤ 1000	–	–	O=C(O)c1cn(-c2ccc(N3CC4CNCC4C3)nc2)c2cc(N3CCC[C@@H]3COc3ncccc3Cl)c(Cl)cc2c1=O (stereo partly drawn) [Example 527, 6-chloro-7-((R)-2-(((3-chloropyridin-2-yl)oxy)methyl)pyrrolidin-1-yl)-1-(6-(hexahydro-pyrrolo[3,4-c]pyrrol-2(1H)-yl)pyridin-3-yl)-4-oxo-1,4-dihydroquinoline-3-carboxylic acid acid]
≤ 1000	–	–	O=C(O)c1cn(-c2ccc(OCCO)cc2)c2cc(N3CCC[C@@H]3COc3ccccn3)c(F)cc2c1=O [Example 405, (R)-6-fluoro-1-(4-(2-hydroxyethoxy)phenyl)-4-oxo-7-(2-((pyridin-2-yloxy)methyl)pyrrolidin-1-yl)-1,4-dihydroquinoline-3-carboxylic acid]
–	≤ 1000	–	CN(C)C1CN(c2ccc(-n3cc(C(=O)O)c(=O)c4cc(Cl)c(N5CCC[C@@]5(C)COc5ncccc5Cl)cc43)cn2)C1 (racemic) [Compound 314, rac-(R)-6-chloro-7-(2-(((3-chloropyridin-2-yl)oxy)methyl)-2-methyl-pyrrolidin-1-yl)-1-(6-(3-(dimethyl-amino)azetidin-1-yl)pyridin-3-yl)-4-oxo-1,4-dihydro-quinoline-3-carboxylic acid formic acid]
–	≤ 1000	–	O=C(O)c1cn(-c2cnn(C3CNC3)c2)c2cc(N3CCC[C@@H]3COc3ncccc3F)c(Cl)cc2c1=O [Compound 246, 1-[1-(azetidin-3-yl)pyrazol-4-yl]-6-chloro-7-[(2R)-2-[[(3-fluoropyridin-2-yl)oxy]methyl]pyrrolidin-1-yl]-4-oxoquinoline-3-carboxylic acid]
–	–	IC50 (LIN28A 10 nM, Zcchc11 0.2 nM, 5′-fluorescein pre-let-7 miRNA 2 nM, UTP 5 uM, room temperature, 30 minutes pre-incubation): 10000 to 50000 nM	CN(C)CCN1CCC(n2cc(C(=O)O)c(=O)c3cc(Cl)c(N4CCC[C@@H]4COc4ncccc4Cl)cc32)C1 (stereo partly drawn) [Example 39, 6-chloro-7-[(2R)-2-{[(3-chloropyridin-2-yl)oxy]methyl}pyrrolidin-1-yl]-1-{1-[2-(dimethylamino)ethyl]pyrrolidin-3-yl}-4-oxo-1,4-dihydroquinoline-3-carboxylic acid]
1000 to 10000	–	–	CN(C)C1CN(c2ccc(-n3cc(C(=O)O)c(=O)c4cc(Cl)c(N5CCC[C@@H]5COC5CCOCC5)cc43)cn2)C1 [Example 595, (R)-6-chloro-1-(6-(3-(dimethylamino)azetidin-1-yl)pyridin-3-yl)-4-oxo-7-(2-(((tetrahydro-2H-pyran-4-yl)oxy)methyl)pyrrolidin-1-yl)-1,4-dihydroquinoline-3-carboxylic acid]
–	≤ 1000	–	CN(C)C1CN(c2ccc(-n3cc(C(=O)O)c(=O)c4cc(C#N)c(N5CCC[C@@H]5COc5ncccc5F)cc43)cn2)C1 [Compound 169, (R)-6-cyano-1-(6-(3-(dimethyl-amino)azetidin-1-yl)pyridin-3-yl)-7-(2-(((3-fluoropyridin-2-yl)oxy)methyl)pyrrolidin-1-yl)-4-oxo-1,4-dihydro-quinoline-3-carboxylic acid]
≤ 1000	–	–	CN(C)C1CN(c2ccc(-n3cc(C(=O)O)c(=O)c4cc(Cl)c(N5CC(c6ccc(O)nc6)C[C@@H]5COc5ncccc5Cl)cc43)cn2)C1 (stereo partly drawn) [Example 608]
–	≤ 1000	–	CN(C)C1CN(c2ccc(-n3cc(C(=O)O)c(=O)c4cc(C#N)c(N5C[C@@H]6C[C@@H]6C5COc5ncccc5F)cc43)cn2)C1 (stereo partly drawn) [Compound 293, 6-cyano-1-(6-(3-(dimethyl-amino)azetidin-1-yl)pyridin-3-yl)-7-((1S,5R)-2-(((3-fluoropyridin-2-yl)oxy)methyl)-3-azabicyclo [3.1.0]hexan-3-yl)-4-oxo-1,4-dihydro-quinoline-3-carboxylic acid]
–	≤ 1000	–	O=C(O)c1cn(-c2cnn(C3CN(CC(F)F)C3)c2)c2cc(N3CCC[C@@H]3COc3ncccc3Cl)c(Cl)cc2c1=O [Compound 319, 6-Chloro-7-[(2R)-2-[[(3-chloropyridin-2-yl)oxy]methyl]pyrrolidin-1-yl]-1-[1-[1-(2,2-difluoroethyl)azetidin-3-yl]pyrazol-4-yl]-4-oxoquinoline-3-carboxylic acid]
≤ 1000	–	–	O=C(O)c1cn(-c2ccc3[nH]ccc3c2)c2cc(N3CCC[C@@H]3COc3ccccn3)c(F)cc2c1=O [Example 439, (R)-6-fluoro-1-(1H-indol-5-yl)-4-oxo-7-(2-((pyridin-2-yloxy)methyl)pyrrolidin-1-yl)-1,4-dihydroquinoline-3-carboxylic acid]
–	≤ 1000	–	CN(C)C1CN(c2ccc(-n3cc(C(=O)O)c(=O)c4cc(Cl)c(N5CCC[C@@H]5COc5nc(O)ccc5Cl)cc43)cn2)C1 [Compound 331, 6-Chloro-7-[(2R)-2-[[(3-chloro-6-hydroxy-pyridin-2-yl)oxy]methyl]pyrrolidin-1-yl]-1-[6-[3-(dimethyl-amino)azetidin-1-yl]pyridin-3-yl]-4-oxoquinoline-3-carboxylic acid]
